Data as given in PubChem BioAssay (NCI).
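Dose response: 5 concentrations. Exposure: 48 h. Format: 96-well plates. Endpoint: linear interpolation; highest concentration if not reached. The concentration for 50% growth inhibition is given as GI50. TGI: concentration producing complete growth inhibition.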

These compounds were tested on RXF 393 renal (assay: NCI-60 cell line screen, 48 h).
For `S=C1OC2CCCC[C@H]2O1` (stereo partly specified), the TGI was greater than 100 µM.

What follows are compounds tested on UO-31 renal (assay: NCI-60 cell line screen, 48 h).
With `C=CCc1ccc(Oc2cc(CC=C)c3c(c2O)O[C@@H](CO)[C@H]3c2ccc(O)c(-c3cc(CC=C)ccc3O)c2)cc1` the TGI was greater than 100 µM. Work on `O=S(=O)(Nc1cc(Sc2cccc3cccnc23)c(O)c2ccccc12)c1ccccc1` yielded a GI50 of 0.734 µM and a TGI of 4.76 µM. `O=C(NCO)NCOCn1c(=O)n(CO)c(=O)n(CO)c1=O` showed a TGI greater than 100 µM. Compound `CN(C)C(=O)[C@H](O)[C@H](Cc1ccccc1)NC(=O)c1cc2cc(Cl)ccc2[nH]1` has a GI50 of 14.8 µM and a TGI of 39.8 µM. In the case of `CC(C)(C[C@H]1CN(S(=O)(=O)c2cccc(C(F)(F)F)c2)c2cc(-c3cc(F)cc(OC(F)F)c3)ccc2O1)C(=O)O`, the GI50 is reported as 10.8 µM and the TGI is reported as 23.4 µM. `Cc1ccc(-c2nc3ccc(Cl)cc3c(=O)n2N2C(=O)CSC2c2ccccc2Cl)cc1` (stereo unspecified) gave a GI50 of 3.66 µM and a TGI greater than 100 µM. With `O=C(O)C1C(Br)(c2ccccc2)C1(Br)c1ccccc1` (stereo unspecified) the TGI was 47.2 µM. In the case of `C#Cc1c(I)n(C2OC(CO[Si](C)(C)C(C)(C)C)C3OC(C)(C)OC32)c(=O)[nH]c1=O` (stereo unspecified), the GI50 is reported as 1.99 µM and the TGI is reported as 5.49 µM. `CCSc1nc(SCC)c2cn[nH]c2n1` showed a GI50 of 34.9 µM and a TGI greater than 100 µM. For `ClCC[N+]12CC[N+](CCCl)(CC1)C2`, the TGI was greater than 100 µM. Work on `COc1ccc(CCN2COc3c([C@@H](C)CCC=C(C)C)ccc(C)c3C2)cc1OC` yielded a GI50 of 2.45 µM and a TGI of 12.3 µM. With `COc1cc(C(=O)c2cc(C)c3[nH]c4ccc(C)cc4c3c2C)cc(OC)c1OC` the GI50 was less than 0.01 µM and the TGI was greater than 100 µM. Work on `C=C1C(=O)OC2/C=C(\COC(C)=O)CCC(OC(C)=O)C3=CC(OC3=O)C12` (stereo unspecified) yielded a TGI of 35.5 µM. In the case of `Cc1ccc2[nH]c(O)c(N=Nc3ccc(S(N)(=O)=O)cc3)c2c1`, the GI50 is reported as 12.7 µM and the TGI is reported as greater than 25 µM. With `C/C(N=NC(=S)N(C)C)=C1\C=CC=CN1O` the TGI was greater than 97.4 µM. `CCCSc1nc(COC(=O)NC)c(COC(=O)NC)n1C` was tested, and the TGI was greater than 100 µM. For `O=C1CCC(O)=C1N=Nc1ccccc1`, the TGI was greater than 100 µM. `C=C1CCC(CC[C@@H]2CC[C@]3(OC2)O[C@@]2(O)CC[C@]3(C)OC2(C)C)C(C)(C)[C@H]1C/C=C1/C(=O)OC[C@@H]1O` (stereo partly specified) was tested, and the TGI was 9.33 µM. `C[C@]12CC[C@@H]3c4cc(OCC(F)(F)F)c(O)cc4/C(=N/O)C[C@H]3[C@@H]1CC[C@@H]2O` was tested, and the GI50 was 0.149 µM and the TGI was 20.8 µM. With `Cn1c(=O)c(Cc2ccccc2F)cc2cnc(NC3CCOCC3)nc21` the GI50 was greater than 20.4 µM and the TGI was greater than 25 µM. In the case of `COc1cc(/C=C/c2ccc(OC)c(OC)c2)cc(OC)c1`, the TGI is reported as 83.1 µM. `CC1(C)[C@@H](OC(N)=O)[C@H]2O[C@H]2[C@]2(C=O)[C@H]3CC[C@]4(C)[C@@H](c5ccc(=O)oc5)[C@@H](Cl)C[C@]4(O)C3=CC[C@@H]12` showed a GI50 of 0.00572 µM and a TGI of 0.0163 µM. In the case of `CCCCON(OC(=O)c1ccc2ccc3cccc4ccc1c2c34)C(C)=O`, the GI50 is reported as 19.5 µM and the TGI is reported as 42.4 µM. In the case of `Clc1ccc(C=Nc2ccc3c(c2)Cc2ccccc2-3)c(Cl)c1`, the TGI is reported as greater than 100 µM. With `CN(C)CCN1C(=O)c2ccc3c4c(ccc(c24)C1=O)C(=O)N(CCN=C=S)C3=O` the GI50 was 0.0281 µM and the TGI was 0.157 µM. Work on `COc1ccc2nc(NC(=O)C(=O)C(C#N)c3ccc([N+](=O)[O-])cc3)sc2c1` (stereo unspecified) yielded a TGI greater than 100 µM. For `COc1ccc(/C=C/c2cc(OC)cc(=O)o2)cc1`, the TGI was greater than 100 µM. With `O=C1CSC(c2ccc(Cl)cc2Cl)N1c1ccc(F)cc1` (stereo unspecified) the GI50 was 16.6 µM and the TGI was 31.5 µM. Compound `O=C(O)[C@H](NS(=O)(=O)c1ccc([N+](=O)[O-])cc1)c1ccccc1` has a TGI greater than 100 µM. With `S=C1OC2CCCC[C@H]2O1` (stereo partly specified) the TGI was greater than 100 µM.

What follows are compounds tested on 786-0 renal (assay: NCI-60 cell line screen, 48 h).
`C=CCc1ccc(Oc2cc(CC=C)c3c(c2O)O[C@@H](CO)[C@H]3c2ccc(O)c(-c3cc(CC=C)ccc3O)c2)cc1` was tested, and the TGI was greater than 100 µM. `O=S(=O)(Nc1cc(Sc2cccc3cccnc23)c(O)c2ccccc12)c1ccccc1` gave a GI50 of 0.79 µM and a TGI of 10.7 µM. `O=C(NCO)NCOCn1c(=O)n(CO)c(=O)n(CO)c1=O` showed a TGI greater than 100 µM. With `CN(C)C(=O)[C@H](O)[C@H](Cc1ccccc1)NC(=O)c1cc2cc(Cl)ccc2[nH]1` the GI50 was 27.3 µM and the TGI was greater than 85.2 µM. For `CC(C)(C[C@H]1CN(S(=O)(=O)c2cccc(C(F)(F)F)c2)c2cc(-c3cc(F)cc(OC(F)F)c3)ccc2O1)C(=O)O`, the GI50 was 6.98 µM and the TGI was 20.7 µM. `Cc1ccc(-c2nc3ccc(Cl)cc3c(=O)n2N2C(=O)CSC2c2ccccc2Cl)cc1` (stereo unspecified) showed a GI50 of 3.62 µM and a TGI greater than 100 µM.
